Experimental data: US11198869B2, “Angelman syndrome antisense treatment” (The Texas A&M University System, priority 2017, dated 2021)

System: UBE3A
Assay: UBE3A steady state RNA (qRT-PCR) in GABAergic iPSC-derived neurons
Format: cell-based, human
Settings: for effect on UBE3A RNA levels (in words): treated 29 DIV, RNA 35 DIV, 10-point dose curve; for Difference, UBE3A RNA level: ASOs 10 μM; for increase of UBE3A RNA levels: 10 μM
Procedure: Human-specific ASOs were then designed to target this region, which included four ASOs targeting non-polymorphic regions in human and regions conserved (100%) with macaque (Rhesus and Cynomolgus) (Table 7 and FIG. 3A). Human induced pluripotent stem cell (iPSC) neural precursor cells were differentiated into GABAergic neurons for 14 DIV and then treated with a control ASO [ASO-C (10 μM, n=3)], Topotecan [Topo (1 μM, n=2)], and six ASOs targeting UBE3A-AS [ASO-1, ASO-2, ASO-3, ASO-4, ASO-5, and ASO-6 (10 μM, n=3)]. Additionally, an ASO targeting an intronic region downstream of SNORD109B was included (ASO-7). Six days post-treatment (20 DIV), RNA was isolated from the neurons and the steady state RNA levels of UBE3A-AS and UBE3A were estimated relative to the control treatment (FIG. 3B).
The effects of ASO-4 and Topotecan were then examined on the SNORD116, IPW, SNORD115, and SNORD109A RNAs, which are located upstream of the ASO-4 target region (see FIG. 1A).
The potency of ASO-4 was further examined in iPSC-derived neurons at a later time point in differentiation. GABAergic iPSC-derived neurons were treated at 59 DIV with a control ASO [ASO-C, 10 μM (n=3)] and ASO-4 [1 uM, 5 μM, and 10 μM (n=3)], and the steady state RNA levels of UBE3A-AS and UBE3A were measured as described above (FIG. 4G). Unlike neurons treated with ASO-4 at an earlier time point, the RNA levels of UBE3A and UBE3A-AS were highly inversely correlated (FIGS. 4H and 4I). For example, the effect of ASO-4 (10 μM) on UBE3A-AS RNA levels was similar between neurons treated at 14 and 59 DIV [20 DIV: UBE3A-AS: ↓87% (95% confidence intervals (CI): 80 to 95%); 65 DIV: ↓81% (95% CI: 74 to 88%)], whereas the effect of ASO-4 on UBE3A RNA levels was substantially larger in neurons treated at 59 DIV [20 DIV: ↑30% (95% CI: 16 to 44%); 65 DIV: ↑86% (95% CI: 59% to 113%)].
The potency of ASO-4 and ASO-6.1 was further examined in iPSC-derived neurons at a later time point in differentiation. GABAergic iPSC-derived neurons were treated at 29 DIV with a 10-point ½ log dose response curve of ASO-4 and ASO-6.1 [1 nM, 3 nM, 10 nM, 30 nM, 100 nM, 300 nM, 1 μM, 3 μM, 10 μM, and 30 μM (n=3)]. At 35 DIV, the IC50 and Emax of each ASO was estimated as described above (FIG. 5C-D and Table 14). The dose response curves of ASO-4 and ASO-6.1 were not similar (Parallelism test: F(3,172)=22.7, p<0.0001).
GABAergic and glutamatergic induced pluripotent stem cell (iPSC) derived neural precursor cells (NRC-100-010-001 and GNC-301-030-001, Cellular Dynamics International, Madison Wis.) were differentiated into neurons according to the manufactures protocol. Briefly, neural precursor cells were thawed and resuspended in chemically defined medium and added to sterile-culture plates coated with poly-D-lysine and laminin. The medium was replaced 24 hr after plating and then one-half of the medium was replaced every 3-5 days afterwards.
For cultured iPSC-derived neurons, RNA isolation and cDNA synthesis were performed using the Cell-to-CT kit (Thermo Fisher Scientific) in a lysate volume of 55 μl.
The steady state RNA levels of target transcripts were measured using TaqMan quantitative reverse-transcription PCR (qRT-PCR) assays. Total reaction volume was 10 uL, including 2 μl of cDNA, 1× Gene Expression Master mix (4369016, Thermo Fisher Scientific, Waltham, Mass.), and 1× TaqMan primer assay (Thermo Fisher Scientific). Cycling conditions were 2 minutes at 50° C., 10 minutes at 95° C., and 40 cycles of 15 seconds at 95° C. and 1 minute at 60° C., with readings taken at the 60° C. step of every cycle. Reactions were run on a BIO-RAD T1000 CFX96 thermocycler (Bio-Rad Laboratories, Hercules Calif.), with internal control (PPIA, Hs99999904_m1, Thermo Fisher Scientific) and target [UBE3A-AS, Hs01372957_m1; SNORD116-11, Hs04275268_gH; SNORD115, Hs04275288_gH; IPW, Hs03455409_s1; SNORD109A/B, AP47WVR (Thermo Fisher Scientific); UBE3A: forward […] (SEQ ID NO:500); reverse: […]

[1] = Topo 1 μM, 14 DIV to 20 DIV, labelled treatment minus ASO-3
[2] = Topo 1 μM, 14 DIV to 20 DIV, labelled treatment minus ASO-5
[3] = Topo 1 μM, 14 DIV to 20 DIV, labelled treatment minus ASO-6
[4] = Topo 1 μM, 14 DIV to 20 DIV, labelled treatment minus ASO-R
[5] = Topo 1 μM, treated 14 DIV, RNA 20 DIV, normalized to ASO-C, labelled treatment minus ASO-C
[6] = 14 DIV to 20 DIV, labelled treatment minus ASO-1
[7] = 14 DIV to 20 DIV, labelled treatment minus Topo (1 μM)

Row | Molecule | effect on UBE3A RNA levels (in words) | Difference, UBE3A RNA level [1] | Difference, UBE3A RNA level [2] | Difference, UBE3A RNA level [3] | Difference, UBE3A RNA level [4] | Difference, UBE3A RNA level [5] | Difference, UBE3A RNA level [6] | Difference, UBE3A RNA level [7] | increase of UBE3A RNA levels (treated 14 DIV, RNA 20 DIV) [%] | increase of UBE3A RNA levels (treated 59 DIV, RNA 65 DIV) [%] | Difference, UBE3A RNA level (14 DIV to 20 DIV, labelled treatment minus ASO-2)
1 | C^O*U^O*G^O*G^O*t*g*t*c*a*a*c*a*a*g*C^O*C^O*A^O*A^O [ASO-6.1] | increasing RNA levels in dose dependent manner | – | – | – | – | – | – | – | – | – | –
2 | G^O*U^O*A^O*C^O*U^O*c*t*t*c*c*t*c*a*g*t*C^O*A^O*U^O*C^O*C^O [ASO-2] | – | 0.08 | 0.05 | 0.05 | 0.21 | 0.21 | 0.03 | 0.03 | – | – | –
3 | CC[C@@]1(O)C(=O)OCc2c1cc1n(c2=O)Cc2cc3c(CN(C)C)c(O)ccc3nc2-1 [Topotecan, reference compound] | – | 0.05 | 0.02 | 0.02 | 0.18 | 0.18 | – | – | – | – | –
4 | U^O*A^O*G^O*A^O*A^O*t*g*g*c*a*c*a*t*c*t*C^O*U^O*U^O*G^O*G^O [ASO-4] | increasing RNA levels in dose dependent manner | 0.17 | 0.13 | 0.13 | 0.29 | 0.30 | 0.11 | 0.11 | 30 | 86 | 0.08
